Measurements: US20240398831A1, “COMPOSITIONS COMPRISING SMALL MOLECULE REGULATORS OF TUMOR IMMUNITY AND METHODS OF USING SAME” (Duke University, priority 2021, published 2024)
Like-named read-outs stand apart in the source and are kept apart here.

Legend:
[1] = system: YuMM5.2 tumors; assay type: in vivo
Description: (§1) Tumor models and cells. The mouse B16F10 and Yumm5.2 cell lines were purchased from American Type Culture Collection (ATCC, Manassas, VA). The mouse melanoma cell line BPD6 was established from iBP as described elsewhere (Zhao et al., Immunity 2018, 48, 147-160). B16F10 and BPD6 cells were maintained in Dulbecco's Modified Eagle's Medium (DMEM) supplemented with 8% fetal bovine serum (FBS), 0.1 mM non-essential amino acids (NEAA) and 1 mM sodium pyruvate. YuMM5.2 cells were maintained in DMEM/F12 media supplemented with 10% FBS. The cells were replated 3 times/week at a confluency of 1:10 and were kept in a 37° C. incubator at 5% CO2. For subcutaneous tumor models B16F10 (5×10^4 or 1×10^5), YuMM5.2 (5×10^5), and BPD6 (5×10^5) cells were injected into the right flank of the mice. For iBP mice, tumors were induced with a single intradermal dose of 4-hydroxytamoxifen in DMSO (150 μg/mouse). Tumors were measured thrice weekly using an electronic caliper. Tumor volumes were calculated by the formula V=L×(W×W)/2. For iBP mouse tumors, volumes were calculated by the formula V=L×B×H. For tumor growth rate studies mice were euthanized when the tumors reached a maximum size of 2000 mm^3.
(§2) Ovarlectomy and subcutaneous pellet Insertion. Ovariectomy was performed as previously described (Nelson et al., Science 2013, 342, 1094-1098). Eight days prior to tumor inoculation, 7 weeks old C57BL/6J or 5 weeks old (iBP) female mice were subjected to ovariectomy or sham surgery. Mice were anesthetized in an inhalation chamber (2% Isoflurane) and maintained in half the dose of isoflurane (1%) via nose cone throughout the surgical process. Prior to surgery, mice were administered a 5 mg/kg dose of carprofen subcutaneously. The area below the ribs was shaved with an electronic razor and the skin was sterilized by rubbing with betadine and alcohol (3× alternating). A horizontal incision was made through the skin above the ovary fat pad, followed by a vertical incision through the abdominal muscle wall. The ovary was externalized and removed using a cauterizing scissors (or returned if sham). Fat pad was replaced, and muscle walls were opposed and sutured (1-2 stitches). Following suturing, 1 drop of bupivacaine (0.25%) was added on top of the incision site. The skin was opposed, and a wound clip was placed on the incision site. This was repeated for the other ovary. The mouse was then removed from anesthesia and kept in a clean cage and monitored until conscious. The mice were monitored for recovery for 10 days.
(§3) Single cell isolation from tumors. Tumors were isolated, minced on a petri dish in media (DMEM+5% FBS), and then enzymatically digested by the addition of 100 μg/mL DNase I (D5025-150KU, Sigma-Aldrich) and 1 mg/mL collagenase (Collagenase A, Cat #10103586001, Sigma-Aldrich) for 30 mins-45 mins. For iBP models, isolated tumors were sliced into large chunks and subjected to mechanical digestion in a gentleMACS Dissociator for 30 seconds twice. Following this, tumors were digested with an enzyme cocktail containing DNase I, collagenase, and hyaluronidase (100 μg/mL) (H6254, Sigma-Aldrich) for 40 mins following a second round of mechanical digestion for 30 seconds (twice). The cells were then filtered through a 40 μm strainer to produce single cell suspensions and the enzymes were diluted by addition of additional media then spun down to remove media. Red blood cells were lysed with the addition of ACK lysis buffer (Cat #A1049201. ThermoFisher Scientific) for 4 mins at room temperature. Following red blood cell lysis, cells were washed with PBS before proceeding to flow cytometry staining or magnetic bead-based isolation.
(§4) Flow cytometry staining. Single cells suspensions (10^6 cells in 50 μL) were incubated with Live/dead fixable dead cell stain in PBS for 10 mins at 4° C. Cells were spun down at 1000×g and were incubated with anti-CD16/32 (Catalog #14-0161-85, ThermoFisher Scientific) in flow buffer (10 gms BSA in 1 L PBS+sodium azide) for 15 mins. […]

[2] = system: YuMM5.2 cells; test: Quantitative PCR of Wnt5A-β-catenin targets in melanoma tumor cells; assay type: cell-based, mouse
[3] = system: B16F10 tumors; test: B16F10 syngeneic melanoma tumor model in ovariectomized mice (tumor growth, flow cytometry); assay type: in vivo, mouse
Description: as §1, §2, §3, §4

[4] = system: BPD6 tumors; test: BPD6 syngeneic melanoma tumor model in ovariectomized mice (tumor growth, flow cytometry); assay type: in vivo, mouse
Description: FIGS. 18E-18G show quantification of M1 macrophages (MHCII^hi CD206^−ive), GZMB^+CD8^+ T cells, and PD1^+CD8^+ T cells in YuMM5.2 tumors from FIG. 18C (n=4). […] Vehicle+IgG (n=10, red), fulvestrant+IgG (n=15, blue), vehicle+ICB (n=15, black), and fulvestrant+ICB (n=15, brown). Black arrow indicates start of ICB treatment regimen. […] Vehicle+IgG (n=9, red), fulvestrant+IgG (n=8, blue), vehicle+ICB (n=9, black), and fulvestrant+ICB (n=10, brown). Black arrow indicates start of anti-PD1 treatment regimen. […] FIGS. 18A-18C are representative of two individual experiments. Data are expressed as mean 3 S.E.M. Significance was calculated by one-way ANOVA followed by Bonferroni's multiple correction (FIG. 18K), by Student's t test (FIG. 18L), and by log rank test (FIG. 18M) (*p<0.05, **p<0.01, and ***p<0.001).
as §1, §2
Fulvestrant treatment Mice were injected with fulvestrant (Cat #HY-13636 MedChemExpress) 2 days after tumor injection at a dose of 25 mg/kg via intramuscular route. […]

[5] = BMDM from Esr1^f/f, LysMCre versus Esr1^f/f
[6] = E2 vs placebo, ex vivo PMA and ionomycin 4 hr
[7] = E2 vs placebo, ovariectomized C57BL/6J
[8] = Esr1^f/f and LysMCre control mice
[9] = Esr1^f/f, LysMCre mice (myeloid ERα knockout)
[10] = E2 treated mice co-treated with fulvestrant
[11] = fulvestrant 25 mg/kg, E2 supplemented mice

For 17β-estradiol [E2], the “tumor promoting effects of E2, tumor cells co-mixed with BMDM (1:1)” value [1, 5] was “significantly compromised”, the “number of PD1+CD8+ T cells (exhausted T cells)” value ([1]; E2 treatment) was “increased” and the “Granzyme B expression in CD8+ TILs” value [1, 6] was “reduced expression”. The “IFNγ in CD8+ TILs” value [1, 6] was “reduced expression”, the “PD1 expression on CD8+ TILs” value [1, 6] was “significantly more” and the “activation markers CD44 and CD69 on CD8+ TILs” value [1, 6] was “reduced expression”. The tumor growth [1, 7] was “significantly increased”, the “infiltration of CD4+ FOXP3+ regulatory T cell subsets” value ([1]; E2 vs placebo, FIGS. 16D-16E B16F10 and YuMM5.2) was “not observed” and the tumor growth [1, 8] was “increased”. For the same molecule, the tumor growth [1, 9] was “not evident”, the “percentage of Ly6C+/Ly6G+ MDSCs in tumors” value (from here on “percentage”) ([1]; flow cytometry, E2 vs placebo) was “no changes” and the “M1 (proinflammatory macrophages) in tumor infiltrating immune cells” value ([1]; flow cytometry, Esr1^f/f animals) was “decrease”. For the same molecule, the “expression of WNT5A-β-catenin targets” value ([2]; E2 (1 nM)) was “did not change”, the “tumor promoting effects of E2, tumor cells co-mixed with BMDM (1:1)” value [3, 5] was “significantly compromised” and the tumor growth [3, 7] was “significantly increased”. For the same molecule, the tumor growth [3, 8] was “increased”, the tumor growth [3, 9] was “not evident” and the “infiltration of immune cells (CD45+)” value ([3]; flow cytometry, E2 vs placebo) was “not impacted by treatment”. For the same molecule, the “percentage” value ([3]; flow cytometry, E2 vs placebo) was “no changes”, the “ratio of intratumoral M1 (MHCII^hi CD206−) to M2 (MHCII^lo CD206+/hi) macrophages” value ([3]; flow cytometry, E2 vs placebo) was “decreases” and the tumor growth [4, 7] was “significantly increased”. The “percentage” value ([4]; flow cytometry, E2 vs placebo) was “no changes”.

`C[C@]12CC[C@@H]3c4ccc(O)cc4C[C@@H](CCCCCCCCC[S+]([O-])CCCC(F)(F)C(F)(F)F)[C@H]3[C@@H]1CC[C@@H]2O` (stereo partly shown) [fulvestrant] was tested, and the “inflammatory macrophages (MHCII^hi CD206−)” value [1, 10] was “increase”, the tumor growth [1, 11] was “significantly reduced” and the “number of PD1+CD8+ T cells (exhausted T cells)” value ([1]; fulvestrant treatment of E2 treated mice) was “decrease”. For the same molecule, the “cytotoxic capabilities of tumor infiltrating T cells, Granzyme B (GZMB) expression” value ([1]; mouse, in vivo) was “increase”, the “expression of WNT5A-β-catenin targets” value ([2]; E2 (1 nM)+fulvestrant (100 nM)) was “did not change” and the tumor growth [3, 11] was “significantly reduced”. The “intratumoral M1/M2 ratio” value [4, 10] was “increase”, the tumor growth ([4]; PD1 sensitive model, fulvestrant alone) was “slows tumor growth” and the tumor growth [4, 11] was “significantly reduced”.
